Source: article PMC12198407, “Preclinical and first-in-human of purinostat mesylate, a novel selective HDAC I/IIb inhibitor, in relapsed/refractory multiple myeloma and lymphoma” (Signal Transduction and Targeted Therapy, 2025)
Where two headings read alike, the source gives them in different places. Each block holds one molecule with its values, some of them ahead of it.

Legend:
[1] = Metabolite profiling in plasma, bile, urine, feces; format: in vivo, SD rats; conditions: for share of plasma AUC0-96h: [14C] 3 mg/100 µCi/kg i.v.; for amount in bile, % of administered dose: 0 to 72 hours; for amount in feces, % of administered dose / amount in urine, % of administered dose: 0 to 168 hours
Method: Following a single intravenous administration of [14C] Purinostat Mesylate at a dose of 3 mg/100 µCi/kg in male and female rats, a total of 14 metabolites were identified, in addition to the parent compound. These were designated as M382, M396, M474, M475, M490, M516, M517, M532, M546, M548, M558, M666, M708a, and M708b. Among these, M382 is an acetylated product of the parent drug after N-dealkylation, M396 is a carboxylic acid derivative of M382, M474 is a reduction product of the parent drug, M475 is a hydroxylated product derived from the amino conversion of M474, M490 is a mono-oxidation product of M474, M516 is an acetylated product of M474, M517 is a hydroxylated product derived from the amino conversion of M516, M532 is an acetylated product of the parent drug, M546 is a methylated product of M532, M548 is a dioxidation product of M516, M558 is a glucuronic acid conjugate of M382, M666 is a glucuronic acid conjugate of the parent drug, M708a is a mono-oxidation glucuronic acid conjugate of M516, and M708b is a glucuronic acid conjugate of M532.

r/r DLBCL = conditions: cited from earlier work
89 kinases = assay: Kinase panel; format: biochemical; conditions: 1 μM
Method: The prototype drug Purinostat was tested for its inhibitory activity against 89 kinases that are strongly associated with tumors.

r/r MM = conditions: cited from earlier work
MM1S xenograft = MM1S xenograft mouse model; format: in vivo, NOD-SCID mice
[2] = test system: human multiple myeloma RPMI-8226; format: in vivo
[3] = test system: human double-hit lymphoma SUDHL-6; assay: SUDHL-6 subcutaneous tumor model; format: in vivo, NOD/SCID mice; conditions: positive control groups
[4] = test system: BCR-ABL positive B-ALL PDX; assay: PDX model of clinical B-ALL patient; format: in vivo, NOD/SCID mice; conditions: positive control
Excerpt: A clinical sample from a B-ALL patient was obtained, characterized by BCR-ABL positivity and relapse after first-line treatment.

HDAC IIa/IV = test system: HDAC IIa/IV; set-up: method as in PMID 27186676, PMID 31439580; conditions: range over isoforms; read-out: IC50 against HDAC IIa/IV; cited from earlier work
[5] = target: human ether-à-go-go-related gene (hERG) channel (Homo sapiens, UniProt Q12809); assay: hERG inhibition; format: biochemical
HDAC I/IIb = test system: HDAC I/IIb; set-up: method as in PMID 27186676, PMID 31439580; conditions: range over isoforms; read-out: IC50 against HDAC I/IIb; cited from earlier work
[6] = test system: diffuse large B-cell lymphoma (DLBCL) cells from patient C; assay: Cell apoptosis analysis, primary cells; format: cell-based, human; conditions: 5 nM, 48 h
Method: (§1) CD138^+, CD38^+, or CD20^+ primary cells were obtained from plasma cell leukemia patients and DLBCL patients who had relapsed after multiple drug therapies. These patient samples were sourced from West China Hospital and had been approved by the clinical ethics committee of West China Hospital of Sichuan University (Chengdu, China). The clinical information of these patients was summarized in Supplementary Table 2. The patient primary cells were cultured in 6-well plates at a density of 1×10^6 cells/mL, and treated with control, PM, panobinostat, Pom and DXM at indicated concentrations for 48 hours. CD138, CD38, and CD20 monoclonal antibodies, Annexin V-APC and 7AAD apoptosis detection kits were used following the manufacturer’s instructions. The apoptosis cells were analyzed by flow cytometry (Thermo, AttuneTMNxT).

[7] = test system: primary MM cells from relapsed patients A and B; assay: Cell apoptosis analysis, primary cells; format: cell-based, human; conditions: 5 nM, 48 h
Method: as §1

mouse B-cell lymphoma = assay: Ighmyc transgenic B-cell lymphoma model, survival; format: in vivo, mice; conditions: positive control groups
MM1R = assay: Cell viability CCK8; format: cell-based; conditions: Homo sapiens, MM.1R, 72 h, no unit in table, read-out: Antiproliferative activity IC50
Method: (§2) PM, panobinostat, Pom and DXM were dissolved in DMSO and stored at -20°C freezer. Cells were seeded at a density of 1.0-3.0 × 10^4 cells/well/100 μL in 96-well plates. After overnight incubation, cells were treated with the drug-containing culture medium for 24, 48, or 72 hours, and cell viability was measured using CCK8 (Oriscience, Chengdu, China) at the indicated time points with Biotek Cytation 3 at a wavelength of 450 nm. The IC50 values were calculated using GraphPad Prism 9.4.1, and Calcusyn 2.0 software was employed to calculate the CI values.

Daudi = assay: Cell viability CCK8; format: cell-based; conditions: Homo sapiens, 72 h, no unit in table, read-out: Antiproliferative activity IC50
Method: as §2

OPM2 = assay: Cell viability CCK8; format: cell-based; conditions: Homo sapiens, OPM-2; OPM2, 72 h; no unit in table; read-out: Antiproliferative activity IC50
Method: as §2

TMD-8 = assay: Cell viability CCK8; format: cell-based; conditions: Homo sapiens, TMD8; TMD-8, 72 h; no unit in table; read-out: Antiproliferative activity IC50
Method: as §2

Raji = assay: Cell viability CCK8; format: cell-based; conditions: Homo sapiens, 72 h, no unit in table, read-out: Antiproliferative activity IC50
Method: as §2

MM1S = assay: Cell viability CCK8; format: cell-based; conditions: Homo sapiens, MM1.S, 72 h, no unit in table (b9: nM), read-out: Antiproliferative activity IC50
Method: as §2

ARD = assay: Cell viability CCK8; format: cell-based; conditions: Homo sapiens, 72 h, no unit in table, read-out: Antiproliferative activity IC50
Method: as §2

RPMI-8226R = assay: Cell viability CCK8; format: cell-based; conditions: Homo sapiens, 72 h, no unit in table, read-out: Antiproliferative activity IC50
Method: as §2

SUDHL-4 = assay: Cell viability CCK8; format: cell-based; conditions: Homo sapiens, SU-DHL-4; SUDHL-4, 72 h; no unit in table; read-out: Antiproliferative activity IC50
Method: as §2

Karpas299 = assay: Cell viability CCK8; format: cell-based; conditions: Homo sapiens, KARPAS-299; Karpas299, 72 h; no unit in table; read-out: Antiproliferative activity IC50
Method: as §2

RPMI-8226 = assay: Cell viability CCK8; format: cell-based; conditions: Homo sapiens; RPMI-8226, 72 h; no unit in table; read-out: Antiproliferative activity IC50
Method: as §2

NKYS = assay: Cell viability CCK8; format: cell-based; conditions: Homo sapiens, 72 h, no unit in table, read-out: Antiproliferative activity IC50
Method: as §2

AMO1 = assay: Cell viability CCK8; format: cell-based; conditions: Homo sapiens; AMO1, 72 h; no unit in table; read-out: Antiproliferative activity IC50
Method: as §2

KMS-11 = assay: Cell viability CCK8; format: cell-based; conditions: Homo sapiens; KMS-11, 72 h; no unit in table; read-out: Antiproliferative activity IC50
Method: as §2

Ramos = assay: Cell viability CCK8; format: cell-based; conditions: Homo sapiens, 72 h, no unit in table, read-out: Antiproliferative activity IC50
Method: as §2

RL = assay: Cell viability CCK8; format: cell-based; conditions: Homo sapiens, 72 h, no unit in table, read-out: Antiproliferative activity IC50
Method: as §2

[8] = positive controls and combinations (PM 5 mg/kg in combinations)

Sequence of human ether-à-go-go-related gene (hERG) channel (Q12809 whole entry, canonical isoform): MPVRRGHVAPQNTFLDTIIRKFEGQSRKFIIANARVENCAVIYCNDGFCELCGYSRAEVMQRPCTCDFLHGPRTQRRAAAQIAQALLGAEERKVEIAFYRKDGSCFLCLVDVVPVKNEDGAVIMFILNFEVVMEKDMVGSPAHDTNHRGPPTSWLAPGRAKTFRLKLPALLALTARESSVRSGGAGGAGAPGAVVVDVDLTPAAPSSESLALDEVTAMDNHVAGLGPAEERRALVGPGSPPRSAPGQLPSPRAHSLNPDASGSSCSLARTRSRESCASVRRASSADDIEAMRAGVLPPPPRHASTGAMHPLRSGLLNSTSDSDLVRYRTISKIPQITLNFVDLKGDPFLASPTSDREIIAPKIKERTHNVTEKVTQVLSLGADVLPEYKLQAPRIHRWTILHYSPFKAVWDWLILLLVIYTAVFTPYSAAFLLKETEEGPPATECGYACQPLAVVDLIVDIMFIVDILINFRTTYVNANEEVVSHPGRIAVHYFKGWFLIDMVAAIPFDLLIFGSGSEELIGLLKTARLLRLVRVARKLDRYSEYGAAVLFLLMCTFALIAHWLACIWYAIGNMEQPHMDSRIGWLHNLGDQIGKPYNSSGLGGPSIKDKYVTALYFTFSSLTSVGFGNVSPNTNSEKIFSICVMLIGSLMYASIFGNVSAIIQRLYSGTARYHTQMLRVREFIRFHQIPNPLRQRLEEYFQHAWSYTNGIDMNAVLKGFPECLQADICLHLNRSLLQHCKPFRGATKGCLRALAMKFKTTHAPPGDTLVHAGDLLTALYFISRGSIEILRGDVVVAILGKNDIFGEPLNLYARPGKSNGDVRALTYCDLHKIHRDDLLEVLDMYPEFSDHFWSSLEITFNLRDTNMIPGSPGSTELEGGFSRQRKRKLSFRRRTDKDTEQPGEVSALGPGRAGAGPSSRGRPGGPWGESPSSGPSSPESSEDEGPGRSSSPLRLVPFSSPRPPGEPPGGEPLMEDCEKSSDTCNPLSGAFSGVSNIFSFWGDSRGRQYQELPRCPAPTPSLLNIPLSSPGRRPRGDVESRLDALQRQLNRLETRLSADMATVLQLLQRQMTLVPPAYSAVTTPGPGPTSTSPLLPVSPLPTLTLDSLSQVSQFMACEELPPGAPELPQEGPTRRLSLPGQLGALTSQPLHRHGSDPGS

share of plasma AUC0-96h ([1]; female rats): 4.71% to 9.05
share of plasma AUC0-96h ([1]; male rats): 4.85% to 6.67
SMILES: CN(Cc1nc2c(N3CCOCC3)nc(-c3ccc(N)cc3)nc2n1C)c1ncc(C(=O)O)cn1 [M475]

share of plasma AUC0-96h ([1]; female rats): 4.71% to 9.05
amount in bile, % of administered dose ([1]; females): 1.16% to 3.30
amount in feces, % of administered dose ([1]; females): 0.79% to 5.53
share of plasma AUC0-96h ([1]; male rats): 4.85% to 6.67
amount in bile, % of administered dose ([1]; males): 0.97% to 4.38
amount in feces, % of administered dose ([1]; males): 1.27% to 6.00
SMILES: CONC(=O)c1cnc(N(C)Cc2nc3c(N4CCOCC4)nc(-c4ccc(NC(C)=O)cc4)nc3n2C)nc1 [M546]

share of plasma AUC0-96h ([1]; female rats): 15.61%
amount in bile, % of administered dose ([1]; females): 5.77% to 7.49
amount in feces, % of administered dose ([1]; females): 30.10%
amount in urine, % of administered dose ([1]; females): 2.35% to 2.49
share of plasma AUC0-96h ([1]; male rats): 17.42%
amount in bile, % of administered dose ([1]; males): 4.75% to 8.74
amount in feces, % of administered dose ([1]; males): 27.70%
amount in urine, % of administered dose ([1]; males): 0.88% to 3.01
SMILES: CC(=O)Nc1ccc(-c2nc(N3CCOCC3)c3nc(CN(C)c4ncc(C(N)=O)cn4)n(C)c3n2)cc1 [M516]

SMILES: O=C(/C=C/c1cccc(S(=O)(=O)Nc2ccccc2)c1)NO [belinostat]
ORR in r/r DLBCL (r/r DLBCL; SWOG S0520): 10.5%

SMILES: CN(Cc1nc2c(N3CCOCC3)nc(-c3ccc(N)cc3)nc2n1C)c1ncc(C(=O)NO)cn1 [Purinostat]
inhibitory activity against 89 kinases (89 kinases): no significant inhibitory activity

share of plasma AUC0-96h ([1]; female rats): 4.71% to 9.05
amount in urine, % of administered dose ([1]; females): 0.43% to 0.87
share of plasma AUC0-96h ([1]; male rats): 4.85% to 6.67
amount in urine, % of administered dose ([1]; males): 1.02% to 1.92
SMILES: CC(=O)Nc1ccc(-c2nc(N3CCOCC3)c3nc(CN(C)c4ncc(C(=O)NO)cn4)n(C)c3n2)cc1 [M532]

SMILES: O=C(CCCCCCC(=O)Nc1ccccc1)NO [vorinostat]
ORR in r/r DLBCL (r/r DLBCL): 6%
response, monotherapy in r/r MM (r/r MM; phase I): 1 MR in 10 patients

SMILES: Cc1[nH]c2ccccc2c1CCNCc1ccc(/C=C/C(=O)NO)cc1 [panobinostat, reference compound]
tumor inhibition rate (MM1S xenograft; 10 mg/kg i.v. three times a week): 49.37%
relative tumor growth rate T/C (MM1S xenograft; positive control groups): 45.1%
tumor inhibition rate (MM1S xenograft; positive control groups, regimens per Table S9): 49.37%
median survival time (MM1S xenograft; satellite group, positive control): 26.5 days
T/C [2, 8]: 35.1%
tumor inhibition rate [2, 8]: 59.79%
median survival time ([2]; satellite groups, PM 5 mg/kg alone or combined, control regimens): 52.5 days
T/C [3]: 92.55±13.13%
tumor inhibition rate [3]: 12.92%
median survival time [4]: 17 days
IC50 (HDAC IIa/IV): 2.7 to 531 nM
IC50 [5]: 3500 nM
IC50 (HDAC I/IIb): 2.1 to 277 nM
apoptosis [6]: 20.49%
apoptosis ([7]; patient A): 54.5%
apoptosis ([7]; patient B): 40.1%
median survival time (mouse B-cell lymphoma): 20 days
response, monotherapy in r/r MM (r/r MM; phase II): 1 PR and 1 MR in 38 patients
IC50 (MM1R): 0.87 ± 0.01 nM
IC50 (Daudi): 6.99 ± 3.9 nM
IC50 (OPM2): 4.4 ± 0.27 nM
IC50 (TMD-8): 9.12 ± 0.25 nM
IC50 (Raji): 5.48 ± 4.81 nM
IC50 (MM1S): 2.87 ± 0.12 nM
IC50 (ARD): 1.82 ± 0.16 nM
IC50 (RPMI-8226R): 5.56 ± 0.49 nM
IC50 (SUDHL-4): 6.72 ± 0.49 nM
IC50 (Karpas299): 4.03 ± 0.2 nM
IC50 (RPMI-8226): 9.3 ± 0.55 nM
IC50 (NKYS): 4.81 ± 0.14 nM
IC50 (AMO1): 3.45 ± 0.5 nM
IC50 (KMS-11): 7.94 ± 0.59 nM
IC50 (Ramos): 5 ± 0.53 nM
IC50 (RL): 6.43 ± 0.45 nM

amount in bile, % of administered dose ([1]; females): 1.16% to 3.30
amount in feces, % of administered dose ([1]; females): 0.79% to 5.53
amount in bile, % of administered dose ([1]; males): 0.97% to 4.38
amount in feces, % of administered dose ([1]; males): 1.27% to 6.00
SMILES: CC(=O)Nc1ccc(-c2nc(N3CCOCC3)c3nc(CN(C)c4ncc(C(=O)O)cn4)n(C)c3n2)cc1 [M517]

share of plasma AUC0-96h ([1]; female rats): 13.75%
amount in bile, % of administered dose ([1]; females): 1.16% to 3.30
amount in feces, % of administered dose ([1]; females): 0.79% to 5.53
amount in urine, % of administered dose ([1]; females): 0.43% to 0.87
share of plasma AUC0-96h ([1]; male rats): 13.79%
amount in bile, % of administered dose ([1]; males): 0.97% to 4.38
amount in feces, % of administered dose ([1]; males): 1.27% to 6.00
amount in urine, % of administered dose ([1]; males): 1.02% to 1.92
SMILES: CN(Cc1nc2c(N3CCOCC3)nc(-c3ccc(N)cc3)nc2n1C)c1ncc(C(N)=O)cn1 [M474]

SMILES: C/C=C1\NC(=O)[C@H]2CSSCC/C=C/[C@H](CC(=O)N[C@H](C(C)C)C(=O)N2)OC(=O)[C@H](C(C)C)NC1=O [romidepsin]
response, monotherapy in r/r MM (r/r MM; phase II): 4/12 patients SD
